Measured values: US7056697B2, “FabK variant” (priority 2000, dated 2006)

Tested on: FabK
Test: FabK activity assay (crotonoyl-ACP reduction, NADH oxidation monitored at 340 nm)
Format: biochemical, Streptococcus pneumoniae
Settings: NH4+ at 100 mM; greatest activation
Method: FabK catalyses the reduction of enoyl-ACPs with the concommitant oxidation of NADH. Crotonoyl-ACP can be prepared as described below. The reduction of crotonoyl-ACP to butyryl-ACP can be monitored by following the change in absorbance at 340 nm as NADH is oxidised.
Assays were carried out in Costar 3696 half-area plates in a final assay volume of 150 ul on a Spectramax platereader. Substrates, NADH and crotonoyl ACP, were incubated with FabK enzyme in 100 mM N-[2-acetamido]-2 iminodiacetic acid (ADA), pH 6.5, 100 mM NH4Cl, 4% glycerol at 30° C. and the reaction monitored at 340 nm. This assaying can also be performed using crotonyl CoA, NADPH or an NADH analogue as a substrate.

**Q.** How did the “activation of the FabK reaction over the reaction with no monovalent cations” value turn out when N [NH4^+] was run?
**A.** about 300 fold
